What was measured:
Experiment in all cases: relative viability (nuclei count vs DMSO), 5 days (fraction); higher = more cells survive
Tozasertib + Bortezomib = compound: Cc1cc(Nc2cc(N3CCN(C)CC3)nc(Sc3ccc(NC(=O)C4CC4)cc3)n2)n[nH]1 [Tozasertib] + CC(C)C[C@H](NC(=O)[C@H](Cc1ccccc1)NC(=O)c1cnccn1)B(O)O [Bortezomib] (partner 0.002 µM)
Method in brief: (§1)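 Lung cancer cell lines in 1536-well plates were dosed by pin tool the day after seeding, either with one drug alone or with a fixed anchor-drug dose plus five library-drug doses (not always all listed) in √10 steps. After 5 days, cells were fixed and their nuclei stained in one step (final 0.05% Triton X-100, 1% formaldehyde, 1 ug/ml Hoechst), then counted on 4× images. Relative viability is the nuclei count in treated wells divided by that in vehicle wells. Values are medians of duplicate plates.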

Tozasertib + Alpelisib = compound: Cc1cc(Nc2cc(N3CCN(C)CC3)nc(Sc3ccc(NC(=O)C4CC4)cc3)n2)n[nH]1 [Tozasertib] + Cc1nc(NC(=O)N2CCC[C@H]2C(N)=O)sc1-c1ccnc(C(C)(C)C(F)(F)F)c1 [Alpelisib] (partner 2 µM)
Method in brief: as §1

Tozasertib + Crizotinib = compound: Cc1cc(Nc2cc(N3CCN(C)CC3)nc(Sc3ccc(NC(=O)C4CC4)cc3)n2)n[nH]1 [Tozasertib] + C[C@@H](Oc1cc(-c2cnn(C3CCNCC3)c2)cnc1N)c1c(Cl)ccc(F)c1Cl [Crizotinib] (partner 1 µM)
Method in brief: as §1

Tozasertib + Foretinib = compound: Cc1cc(Nc2cc(N3CCN(C)CC3)nc(Sc3ccc(NC(=O)C4CC4)cc3)n2)n[nH]1 [Tozasertib] + COc1cc2c(Oc3ccc(NC(=O)C4(C(=O)Nc5ccc(F)cc5)CC4)cc3F)ccnc2cc1OCCCN1CCOCC1 [Foretinib] (partner 0.25 µM)
Method in brief: as §1

Tozasertib + Lapatinib = compound: Cc1cc(Nc2cc(N3CCN(C)CC3)nc(Sc3ccc(NC(=O)C4CC4)cc3)n2)n[nH]1 [Tozasertib] + CS(=O)(=O)CCNCc1ccc(-c2ccc3ncnc(Nc4ccc(OCc5cccc(F)c5)c(Cl)c4)c3c2)o1 [Lapatinib] (partner 2 µM)
Method in brief: as §1

Tozasertib + Olaparib = compound: Cc1cc(Nc2cc(N3CCN(C)CC3)nc(Sc3ccc(NC(=O)C4CC4)cc3)n2)n[nH]1 [Tozasertib] + O=C(c1cc(Cc2n[nH]c(=O)c3ccccc23)ccc1F)N1CCN(C(=O)C2CC2)CC1 [Olaparib] (partner 8 µM)
Method in brief: as §1

Tozasertib + Navitoclax = compound: Cc1cc(Nc2cc(N3CCN(C)CC3)nc(Sc3ccc(NC(=O)C4CC4)cc3)n2)n[nH]1 [Tozasertib] + CC1(C)CCC(c2ccc(Cl)cc2)=C(CN2CCN(c3ccc(C(=O)NS(=O)(=O)c4ccc(N[C@H](CCN5CCOCC5)CSc5ccccc5)c(S(=O)(=O)C(F)(F)F)c4)cc3)CC2)C1 [Navitoclax] (partner 0.5 µM)
Method in brief: as §1

Tozasertib + Linsitinib = compound: Cc1cc(Nc2cc(N3CCN(C)CC3)nc(Sc3ccc(NC(=O)C4CC4)cc3)n2)n[nH]1 [Tozasertib] + C[C@]1(O)C[C@@H](c2nc(-c3ccc4ccc(-c5ccccc5)nc4c3)c3c(N)nccn32)C1 [Linsitinib] (partner 1 µM)
Method in brief: as §1

Tozasertib + Pictilisib = compound: Cc1cc(Nc2cc(N3CCN(C)CC3)nc(Sc3ccc(NC(=O)C4CC4)cc3)n2)n[nH]1 [Tozasertib] + CS(=O)(=O)N1CCN(Cc2cc3nc(-c4cccc5[nH]ncc45)nc(N4CCOCC4)c3s2)CC1 [Pictilisib] (partner 1 µM)
Method in brief: as §1

Tozasertib = compound: Cc1cc(Nc2cc(N3CCN(C)CC3)nc(Sc3ccc(NC(=O)C4CC4)cc3)n2)n[nH]1 [Tozasertib]
Method in brief: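 MetaXpress counted nuclei in 4× images of lung cancer cell lines that had been fixed, permeabilised and Hoechst-stained in one step. Before that, cells in 1536-well plates were kept overnight at 37 °C, pinned with five √10-spaced library-drug doses on vehicle-anchored plates, and cultured 5 days without medium change. Viability takes treated-well nuclei over vehicle-well nuclei and uses the median across plates. Plates were accepted only at control CV below 25% and at least one doubling.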

| Cell Line | relative viability (Tozasertib + Bortezomib; first compound 0.004 µM) | relative viability (Tozasertib + Bortezomib; first compound 0.01265 µM) | relative viability (Tozasertib + Bortezomib; first compound 0.04 µM) | relative viability (Tozasertib + Bortezomib; first compound 0.1265 µM) | relative viability (Tozasertib + Alpelisib; first compound 0.004 µM) | relative viability (Tozasertib + Alpelisib; first compound 0.01265 µM) | relative viability (Tozasertib + Alpelisib; first compound 0.04 µM) | relative viability (Tozasertib + Alpelisib; first compound 0.1265 µM) | relative viability (Tozasertib + Crizotinib; first compound 0.004 µM) | relative viability (Tozasertib + Crizotinib; first compound 0.04 µM) | relative viability (Tozasertib + Crizotinib; first compound 0.1265 µM) | relative viability (Tozasertib + Foretinib; first compound 0.004 µM) | relative viability (Tozasertib + Foretinib; first compound 0.01265 µM) | relative viability (Tozasertib + Foretinib; first compound 0.04 µM) | relative viability (Tozasertib + Foretinib; first compound 0.1265 µM) | relative viability (Tozasertib + Lapatinib; first compound 0.004 µM) | relative viability (Tozasertib + Lapatinib; first compound 0.01265 µM) | relative viability (Tozasertib + Lapatinib; first compound 0.04 µM) | relative viability (Tozasertib + Lapatinib; first compound 0.1265 µM) | relative viability (Tozasertib + Olaparib; first compound 0.004 µM) | relative viability (Tozasertib + Olaparib; first compound 0.01265 µM) | relative viability (Tozasertib + Olaparib; first compound 0.04 µM) | relative viability (Tozasertib + Olaparib; first compound 0.1265 µM) | relative viability (Tozasertib + Navitoclax; first compound 0.004 µM) | relative viability (Tozasertib + Navitoclax; first compound 0.01265 µM) | relative viability (Tozasertib + Navitoclax; first compound 0.04 µM) | relative viability (Tozasertib + Navitoclax; first compound 0.1265 µM) | relative viability (Tozasertib + Linsitinib; first compound 0.004 µM) | relative viability (Tozasertib + Linsitinib; first compound 0.01265 µM) | relative viability (Tozasertib + Linsitinib; first compound 0.04 µM) | relative viability (Tozasertib + Linsitinib; first compound 0.1265 µM) | relative viability (Tozasertib + Pictilisib; first compound 0.004 µM) | relative viability (Tozasertib + Pictilisib; first compound 0.01265 µM) | relative viability (Tozasertib + Pictilisib; first compound 0.04 µM) | relative viability (Tozasertib + Pictilisib; first compound 0.1265 µM) | relative viability (Tozasertib; 0.004 µM) | relative viability (Tozasertib; 0.01265 µM) | relative viability (Tozasertib; 0.04 µM) | relative viability (Tozasertib; 0.1265 µM) | relative viability (Tozasertib + Crizotinib; first compound 0.01265 µM) |
| --- | --- | --- | --- | --- | --- | --- | --- | --- | --- | --- | --- | --- | --- | --- | --- | --- | --- | --- | --- | --- | --- | --- | --- | --- | --- | --- | --- | --- | --- | --- | --- | --- | --- | --- | --- | --- | --- | --- | --- | --- |
| Calu-6 | 0.987 | 1.03 | 1.08 | 0.391 | 1.19 | 0.96 | 0.797 | 0.402 | 0.796 | 0.433 | 0.265 | 0.946 | 0.903 | 0.69 | 0.229 | 1.17 | 0.983 | 1.08 | 0.293 | 0.557 | 0.516 | 0.595 | 0.293 | 0.85 | 0.88 | 0.779 | 0.153 | 0.952 | 0.853 | 1 | 0.309 | 0.946 | 0.862 | 0.781 | 0.259 | 1.06 | 0.953 | 0.998 | 0.546 |  |
| EBC-1 | 0.692 | 0.461 | 0.532 | 0.367 | 0.814 | 0.801 |  | 0.578 | 0.234 | 0.198 | 0.151 | 0.111 | 0.0987 | 0.109 | 0.105 | 0.237 | 0.213 | 0.209 | 0.173 | 0.697 | 0.724 | 0.737 | 0.608 | 0.351 | 0.329 | 0.372 | 0.251 | 0.866 | 0.841 | 0.886 | 0.486 | 0.429 | 0.333 | 0.371 | 0.39 | 1.12 | 1.01 | 1.01 | 0.776 | 0.202 |
